Laboratory results reported in ChEMBL document CHEMBL1212843, “Dual-target-directed 1,3-diphenylurea derivatives: BACE 1 inhibitor and metal chelator against Alzheimer's disease” (Bioorg Med Chem, 2010).

Columns and labels:
Beta-secretase 1 [1] = target: T1, Beta-secretase 1 (Homo sapiens, UniProt P56817); experiment: Inhibition of BACE1 by FRET assay; set-up: concentration or dose not given beside the values; conditions: concentration not given here
Beta-secretase 1 [2] = target: T1, Beta-secretase 1; experiment: Inhibition of BACE1 at 20 ug/ml by FRET assay

T1 sequence (P56817 whole entry): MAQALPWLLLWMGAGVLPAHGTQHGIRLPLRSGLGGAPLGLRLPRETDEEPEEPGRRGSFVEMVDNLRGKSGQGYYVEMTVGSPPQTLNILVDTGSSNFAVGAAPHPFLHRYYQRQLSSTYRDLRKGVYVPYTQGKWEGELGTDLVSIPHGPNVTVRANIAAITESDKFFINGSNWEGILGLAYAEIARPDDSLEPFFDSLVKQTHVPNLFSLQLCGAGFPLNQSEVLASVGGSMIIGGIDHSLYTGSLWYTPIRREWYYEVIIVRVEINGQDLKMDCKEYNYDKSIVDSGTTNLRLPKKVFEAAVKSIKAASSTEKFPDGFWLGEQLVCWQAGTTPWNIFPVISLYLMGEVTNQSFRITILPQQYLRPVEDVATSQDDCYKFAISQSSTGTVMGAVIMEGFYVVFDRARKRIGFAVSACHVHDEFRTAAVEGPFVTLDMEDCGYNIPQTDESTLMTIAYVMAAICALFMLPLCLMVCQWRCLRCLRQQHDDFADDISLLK

Row | inhibition (Beta-secretase 1 [1]) [%] | IC50 (Beta-secretase 1 [2]) [µM] | SMILES
1 | 20.9 |  | COc1cccc(CC(=O)Nc2cc(Br)ccc2OCCN2CCOCC2)c1
2 | 20.3 |  | O=C(Cc1cccc([N+](=O)[O-])c1)Nc1cc(Br)ccc1OCCN1CCOCC1
3 | 24.5 |  | O=C(Cc1ccccc1)Nc1cc(Br)ccc1OCCN1CCOCC1
4 | 36.8 |  | O=C(Cc1ccccc1Cl)Nc1cc(Br)ccc1OCCN1CCOCC1

Continued, molecule first:

Row | SMILES | inhibition (Beta-secretase 1 [1]) [%] | IC50 (Beta-secretase 1 [2]) [µM]
5 | O=C(Cc1ccccc1Cl)Nc1cc(Br)ccc1OCCN1CCCCC1 | 61.9 | > 44.2
6 | NCCCCCCNCCOc1ccc(Br)cc1NC(=O)Cc1ccccc1Cl |  | 27.9
7 | NCCCNCCOc1ccc(Br)cc1NC(=O)Cc1ccccc1Cl | 77.9 | > 45.2
8 | O=C(Cc1ccccc1Cl)Nc1cc(Br)ccc1OCCNC1CCCCC1 | 87.7 | > 42.8
9 | CCCCCCNCCOc1ccc(Br)cc1NC(=O)Cc1ccccc1Cl | 79.4 | 29.4
10 | O=C(Cc1ccccc1Cl)Nc1cc(Br)ccc1OCCNCCCCCO | 67.5 | > 42.5
11 | O=C(Cc1ccccc1Cl)Nc1cc(Br)ccc1OCCNC1CC1 | 77.1 | 37.6
